According to patent US8338622B2, “Heterocyclic compound” (Takeda Pharmaceutical Company Limited, priority 2008, dated 2012):

Key:
human RBP4 = target: T1, human RBP4 (Homo sapiens, UniProt P02753); experiment: Binding assay by Retinol-RBP4-TTR ELISA (human type ELISA); conditions: retinol 0.5 μM, read-out: human RBP4 binding inhibitory activity (IC50 nM)
T1 construct: the culture supernatant containing secreted/expressed hRBP4-His was recovered; His tag (His6, read from the HISENU oligo); made in house; host or cells: FreeStyle293 expression system (Invitrogen), secreted into the culture supernatant
Description: The action of the compound of the present invention to inhibit the binding between RBP4, and retinol and TTR was evaluated using the Retinol-RBP4-TTR ELISA (human type ELISA) system shown below.
The binding assay was performed by an ELISA system (Retinol-RBP4-TTR ELISA) for detecting retinol-RBP4-TTR conjugate by streptavidin-biotin reaction.
His-tagged human RBP4 used was prepared in the above-mentioned 1C.
Biotinylated human TTR used was prepared in the above-mentioned 1E.
Streptavidin (20 μl) (10 μg/ml Streptavidin type II (Wako Pure Chemical Industries, Ltd.), 10 mM Tris-HCl (pH 7.5), 10 mM NaCl) was added to a 384 well black maxisorp plate (Nunc), and the plate was subjected to centrifugation (1000 rpm, 1 min) and coated overnight at 4° C. The plate was washed twice with PBST (PBS, 0.05% Tween 20, 100 μl/well) and blocked with 25% Block Ace (Snow Brand Milk Products Co., Ltd., PBS, 100 μl/well). The plate was subjected to centrifugation (1000 rpm, 1 min) and incubated at room temperature for 4 hr or overnight at 4° C. The plate was washed twice with PBST (PBS, 0.05% Tween 20, 100 μl/well), and biotinylated human TTR (stock solution concentration 1.3 mg/ml) diluted 1000-fold with PBST was added at 20 μl/well. The plate was subjected to centrifugation (1000 rpm, 1 min) and stood still at room temperature for 1.5 hr or overnight at 4° C. The plate was washed 3 times with PEST (100 μl/well), and His-tagged human RBP4 (stock solution concentration 0.96 mg/ml) diluted 4000-fold with a reaction buffer (50 mM Tris-HCl, 150 mM NaCl, 0.005% Tween 20, 1 mM DTT, 0.1% BSA) was added at 10 μl/well. The dilution series (8 doses from 10 mM, 200-fold concentration) of the compound was prepared with DMSO, and 1 μl of each was added to a reaction buffer (200 μl) containing retinol (0.5 μM) (Sigma-Aldrich Co.). A reaction buffer (200 μl) containing retinol and added with DMSO was used as a positive control, and reaction buffer (200 μl) free of retinol and added with DMSO was used as a negative control. Mixed solutions of retinol and the compound were added to the plate at 15 μl/well. The mixture was stirred in a platemixer, subjected to centrifugation (1000 rpm, 1 min) and reacted at room temperature for 2 hr. A 35% Block Ace solution diluted with the reaction buffer was added at 10 μl/well, centrifuged (1000 rpm, 1 min) and reacted at room temperature for 30 min. The plate was washed 3 times with PBST (100 μl/well) and SuperSignal ELISA Femto Maximum Sensitivity Substrate reagent (PIERCE) was added at 30 μl/well, and the luminescence was measured by a platereader (Wallac).
The binding activity rate of the compound was determined by 100×(test compound value−negative control value)/(positive control value−negative control value). The binding inhibitory activity (IC50) was calculated from the binding activity rate at each compound concentration using a graph drawing software, Prism (GraphPad Software Inc.).

RBP4 = target: T2, RBP4 (Mus musculus, UniProt Q00724); experiment: Blood RBP4 lowering action in C57BL/6J mouse, single oral administration; type: in vivo; conditions: plasma, mean±SD n=5; for RBP4 (% of initial/Control) 0 hr later: 0 hr value before administration, 50 mg/kg oral; for RBP4 (% of initial/Control) 4 hr later: 4 hr after 50 mg/kg oral; for RBP4 (% of initial/Control) 7 hr later: 7 hr after 50 mg/kg oral; for RBP4 (% of initial/Control) 24 hr later: 24 hr after 50 mg/kg oral
T2 construct: from tissue; host or cells: plasma of male C57BL/6J mice (Charles River Laboratories Japan Inc.)
Description: A blood RBP4 lowering action of the compound of the present invention was evaluated using C57BL/6J mouse.
Male 7- to 15-week-old C57BL/6J mice (Charles River Laboratories Japan Inc.) were individually bred for acclimation for 4-6 days under conditions with free access to CE-2 solid food (CLEA Japan, Inc.), and grouped based on the body weight (5 per group). The next day of grouping, blood samples were collected from the orbital venous plexus, and plasma was separated (0 hr value). Thereafter, the test compounds (Examples 1, 13, 15, 16, 17, 27 and 34) were orally administered at a dose of 50 mg/kg (solvent: 0.5% methylcellulose solution (10 mL/kg)). At 4, 7 and 24 hr after administration of the compounds, blood samples were collected from the orbital venous plexus, and plasma was separated. A 0.5% methylcellulose solution (10 mL/kg) was orally administered to the control group.
The RBP4 level of the collected plasma was measured by ELISA. RBP4 was quantified by the following steps using a rabbit, anti-mouse RBP4 polyclonal antibody (Hokudo Co., Ltd). A 96 well ELISA plate was coated with 50 μg/ml of the antibody (100 μL) and stood at 4° C. overnight. After blocking with BlockAce (DAINIPPON PHARMACEUTICAL CO., LTD.), mouse RBP4 or a sample (100 μL) was added and the plate was stood at room temperature for 2 hr. After washing with PBS-0.5% Tween 20, HRP-labeled anti-RBP4 antibody (prepared by labeling RBP4 polyclonal antibody (Hokudo Co., Ltd) with HRP (DOJINDO LABORATORIES)) was added by 100 μL, and the plate was stood at room temperature for 1 hr. After washing, TMB (Dako Cytomations) was added, and the mixture was stood at room temperature for 20 min to allow color development, and the reaction was quenched with 2N sulfuric acid. Thereafter, the absorbance at A450 nm was measured on a platereader. The amount of change from the initial value of each animal was determined as a relative value from the control group (% of initial/Control) at each time point. The results are shown in the following in mean±standard deviation (n=5).

Zucker fa/fa rats = experiment: Hypoglycemic action in Zucker fa/fa rats (Experimental Example 4A); type: in vivo, rat; conditions: 30 mg/kg oral for 2 weeks
Description: A hypoglycemic action of the compound of the present invention was evaluated using Zucker fa/fa rats.
Male 19-week-old Zucker fa/fa rats (Takeda Pharmaceutical Company Limited) were bred in group on CE-2 solid food (CLEA Japan, Inc.) until 12-week-old, thereafter bred on high-fat diet D06110702 (LSG Corporation) for acclimation under conditions with free access to food. At 19-week-old, the rats were grouped based on the body weight, blood glucose level, glycated hemoglobin level and blood RBP4 level value (6 per group). Thereafter, the test compound (Example 34) was orally administered at a dose of 30 mg/kg (solvent: 0.5% methylcellulose solution (5 mL/kg)) for 2 weeks. After 24 hr of the final administration of the compound, blood samples were collected from the tail vein, and plasma was separated. Using the collected plasma, (1) RBP4 concentration, (2) glycated hemoglobin level and (3) blood glucose level were measured. (1) was quantified according to the protocol described in Experimental Example 3. (2) was measured using Tosoh Corporation automatic glycohemoglobin analyzer (HLC-723 GHbV A1c2.2 or HLC-723G7 GHbV A1c2.2), and (3) was measured using Hitachi full-automatic analyzer (7070 or 7080), respectively.
A 0.5% methylcellulose solution (5 mL/kg) was orally administered to the control group. […] The results are shown in the following in mean±standard deviation (n=6). In the following Table, glycated hemoglobin change is obtained by subtracting the value before administration from that after administration.

IC50 (human RBP4) [nM] | RBP4 (% of initial/Control) 0 hr later (RBP4) | RBP4 (% of initial/Control) 4 hr later (RBP4) | RBP4 (% of initial/Control) 7 hr later (RBP4) | RBP4 (% of initial/Control) 24 hr later (RBP4) | Structure (SMILES) | other results
210 |  |  |  |  | O=C(O)CN1CC(c2cc(C(F)(F)F)cc(C(F)(F)F)c2)CC1=O (stereo not shown) [Example 48, {4-[3,5-bis(trifluoromethyl)phenyl]-2-oxopyrrolidin-1-yl}acetic acid] | 
26 | 100.0 ± 10.9 % of initial/Control | 54.5 ± 1.2 % of initial/Control | 56.5 ± 2.5 % of initial/Control | 106.6 ± 3.9 % of initial/Control | O=C(O)CCC1CCN(c2ccc(Cl)c(C(F)(F)F)c2)C1 (stereo not shown) [Example 13, 3-{1-[4-chloro-3-(trifluoromethyl)phenyl]pyrrolidin-3-yl}propanoic acid] | 
38 |  |  |  |  | O=C(O)C[S+]([O-])C1CCN(c2cc(C(F)(F)F)cc(C(F)(F)F)c2)C1 (stereo not shown) [Example 2, ({1-[3,5-bis(trifluoromethyl)phenyl]pyrrolidin-3-yl}sulfinyl)acetic acid] | 
27 |  |  |  |  | O=C(O)CSC1CCN(c2cc(C(F)(F)F)cc(C(F)(F)F)c2)C1 (single isomer, unassigned) [Example 10, ({1-[3,5-bis(trifluoromethyl)phenyl]pyrrolidin-3-yl}sulfanyl)acetic acid] | 
39 |  |  |  |  | O=C(O)CCC1CCN(c2cccc(C(F)(F)F)c2Cl)C1 (stereo not shown) [Example 14, 3-{1-[2-chloro-3-(trifluoromethyl)phenyl]pyrrolidin-3-yl}propanoic acid] | 
45 | 100 ± 20.2 % of initial/Control | 42.5 ± 3.3 % of initial/Control | 36.0 ± 3.2 % of initial/Control | 73.8 ± 19.3 % of initial/Control | O=C(O)CSC1CCN(c2cc(C(F)(F)F)cc(C(F)(F)F)c2)C1 (stereo not shown) [Example 1, ({1-[3,5-bis(trifluoromethyl)phenyl]pyrrolidin-3-yl}sulfanyl)acetic acid] | 
26 | 100.0 ± 5.6 % of initial/Control | 37.4 ± 2.4 % of initial/Control | 34.8 ± 2.6 % of initial/Control | 107.4 ± 15.3 % of initial/Control | O=C(O)CCC1CCC(c2cc(C(F)(F)F)cc(C(F)(F)F)c2)O1 (racemic) [Example 34, 3-{5-[3,5-bis(trifluoromethyl)phenyl]tetrahydrofuran-2-yl}propanoic acid] | blood RBP4 concentration (in words) (Zucker fa/fa rats): significant decrease; blood glucose level (in words) (Zucker fa/fa rats): significant decrease; glycated hemoglobin change (in words) (Zucker fa/fa rats): significant decrease; blood glucose level (Zucker fa/fa rats; 24 hr after final administration, mean±SD n=6): 157.2 ± 50.6 mg/dL; glycated hemoglobin change (%) (Zucker fa/fa rats; value after minus before administration, mean±SD n=6): −1.72 ± 0.52%; RBP4 (Zucker fa/fa rats; plasma, 24 hr after final administration, mean±SD n=6): 5.2 ± 0.2 µg/mL
320 | 100.0 ± 4.4 % of initial/Control | 51.0 ± 1.4 % of initial/Control | 49.0 ± 1.1 % of initial/Control | 58.2 ± 2.7 % of initial/Control | O=C(O)CCN1CCN(c2cc(C(F)(F)F)cc(C(F)(F)F)c2)C1=O [Example 15, 3-{3-[3,5-bis(trifluoromethyl)phenyl]-2-oxoimidazolidin-1-yl}propanoic acid] | 
81 |  |  |  |  | O=C(O)CCSC1CCN(c2cc(C(F)(F)F)cc(C(F)(F)F)c2)C1 (stereo not shown) [Example 50, 3-({1-[3,5-bis(trifluoromethyl)phenyl]pyrrolidin-3-yl}sulfanyl)propanoic acid] | 
13 |  |  |  |  | O=C(O)CSC1CCN(c2cc(C(F)(F)F)cc(C(F)(F)F)c2)C1 (single isomer, unassigned) [Example 11, ({1-[3,5-bis(trifluoromethyl)phenyl]pyrrolidin-3-yl}sulfanyl)acetic acid] | 

Structure (SMILES) | IC50 (human RBP4) [nM] | RBP4 (% of initial/Control) 0 hr later (RBP4) | RBP4 (% of initial/Control) 4 hr later (RBP4) | RBP4 (% of initial/Control) 7 hr later (RBP4) | RBP4 (% of initial/Control) 24 hr later (RBP4) | other results
O=C(O)COC1CCN(c2ccc(Cl)c(C(F)(F)F)c2)C1 (stereo not shown) [Example 27, calcium ({1-[4-chloro-3-(trifluoromethyl)phenyl]pyrrolidin-3-yl}oxy)acetate] | 140 | 100.0 ± 2.1 % of initial/Control | 56.2 ± 1.7 % of initial/Control | 56.0 ± 1.6 % of initial/Control | 59.6 ± 2.1 % of initial/Control | 
